Values after ≈ are worked out from the molar mass of the structure shown. Bounds are passed on as bounds.

Results on 38 molecules are retold here after ChEMBL document CHEMBL5241108 (J Med Chem, 2021).

Data set [1] is described as follows: Lipophilicity, logD of compound at pH 7.5 by reversed-phase HPLC analysis. The format is physicochemical. The conditions noted are these: buffer.
Data set [2] can be described thus: Metabolic stability in Han Wistar rat liver microsomes assessed as maximum bioavailability at 1 uM in presence of NADP and measured upto 60 mins by LC-MS/MS analysis. In kind it is ADME, Microsome. The conditions noted are these: read-out: Fmax. (In general: Liver microsomes are a subcellular fraction often used to study metabolism.)
Data set [3] in a line: Metabolic stability in Han Wistar rat hepatocytes assessed as intrinsic clearance at 1 uM in presence of NADP and measured upto 90 mins by LC-MS/MS analysis. In kind it is ADME, cell-based, Hepatocyte. Conditions: read-out: CLH (converted).
Data set [4] is described as follows: Metabolic stability in Han Wistar rat hepatocytes assessed as maximum bioavailability at 1 uM in presence of NADP and measured upto 90 mins by LC-MS/MS analysis. The format is ADME, Hepatocyte. Conditions: read-out: Fmax.
Data set [5] is described as follows: Aqueous solubility of compound at pH 6.5 and measured after 24 hrs by HPLC-MS/MS analysis. The conditions noted are these: buffer. In kind it is physicochemical.
The nature of data set [6]: Metabolic stability in Han Wistar rat liver microsomes assessed as intrinsic clearance at 1 uM in presence of NADP and measured upto 60 mins by LC-MS/MS analysis. Conditions: read-out: CLH (converted). The format is ADME, Microsome.
The nature of data set [7]: Acid dissociation constant, pKa of the compound. In kind it is physicochemical.
Data set [8] can be described thus: Metabolic stability in human liver microsomes assessed as maximum bioavailability at 1 uM in presence of NADP and measured upto 60 mins by LC-MS/MS analysis. In kind it is ADME, Microsome. Conditions: read-out: Fmax.
A short description of data set [9]: Stability of compound at pH 7 at 5 uM and measured upto 24 hrs by HPLC-UV analysis. In kind it is physicochemical. The conditions noted are these: buffer, pH 7, 24 h.
Data set [10] in a line: Stability of compound at pH 1 at 5 uM and measured upto 24 hrs by HPLC-UV analysis. The format is physicochemical. Conditions: buffer, pH 1, 24 h.
The nature of data set [11]: Stability of compound at pH 10 at 5 uM and measured upto 24 hrs by HPLC-UV analysis. The format is physicochemical. Conditions: buffer, pH 10, 24 h.

The term chromatographic logD denotes a lipophilicity value derived from retention on a column. Low values mean lower lipophilicity, high ones higher lipophilicity. As for `CC[C@@H](Nc1c(C#N)c(-c2ccc(-c3cccc(C)c3)cc2)nc2cnccc12)C(N)=O`, the chromatographic logD in data set [1] came to 3.
The same measure, in the same setting: to `CCOc1ccccc1-c1ccc(-c2nc3cnccc3c(N)c2C#N)cc1` belongs 3.
The same measure, in the same setting: to `CC[C@@H](Nc1c(C#N)c(-c2ccc(-c3ccccc3N(C)C)cc2)nc2cnccc12)C(N)=O` belongs 3.2; to `CCOc1ccccc1-c1ccc(-c2nc3cnccc3c(N[C@H](CC)C(=O)N(C)C)c2C#N)cc1`, 3.7.
Still for that read-out and setting: to `CCOc1ccccc1-c1ccc(-c2nc3cnccc3c(N[C@@H]3CCNC3=O)c2C#N)cc1` belongs 2.7; to `CC[C@@H](Nc1c(C#N)c(-c2ccc(-c3ccccc3COC)cc2)nc2cnccc12)C(N)=O`, 2.6; to `CC[C@@H](Nc1c(C#N)c(-c2ccc(-c3ccccc3NC)cc2)nc2cnccc12)C(N)=O`, 2.5.
In data set [1], `CC[C@@H](Nc1c(C#N)c(-c2ccc(-c3cccc(Cl)c3OC)cc2)nc2cnccc12)C(N)=O` showed a chromatographic logD of 3.1.
Still for that read-out and setting: to `CCOc1ccccc1-c1ccc(-c2nc3cnccc3c(N[C@H](CC(C)C)C(N)=O)c2C#N)cc1` belongs 3.4.
In data set [1], `CC[C@@H](Nc1c(C#N)c(-c2ccc(Br)cc2)nc2cnccc12)C(=O)O` displayed a chromatographic logD of 1.6.
On the same count and under the same terms, to `CC[C@@H](Nc1c(C#N)c(-c2ccc(-c3cccc(Cl)c3)cc2)nc2cnccc12)C(N)=O` belongs 3.1; to `CC[C@@H](Nc1c(C#N)c(-c2ccc(-c3cnccc3C)cc2)nc2cnccc12)C(N)=O`, 2; to `CC[C@@H](Nc1c(C#N)c(-c2ccc(-c3ccccc3C(F)(F)F)cc2)nc2cnccc12)C(N)=O`, 3.1.
One may read the solubility as the concentration that dissolves in the medium under given conditions. High values mean much dissolved substance, low ones little dissolved substance. `CCOc1ccccc1-c1ccc(-c2nc3cnccc3c(N[C@H](CC)C(=O)O)c2C#N)cc1`: the Fh at 1 h, 1 µM in data set [2] worked out at 87%. Also, the CLint scaled at 1 µM in data set [3] and in [6] was 8.33 mL/min/kg each time. For the same molecule, the Fh at 1.5 h, 1 µM in data set [4] stood at 87%. The same molecule yielded a solubility at 24 h in data set [5] of 112 µg/mL (≈ 248 µM). The same molecule came in with a chromatographic logD in data set [1] of 2.1.
Molecule `CC[C@@H](Nc1c(C#N)c(-c2ccc(-c3ccccc3Cl)cc2)nc2cnccc12)C(N)=O` had a chromatographic logD in [1] of 2.9.
With `CC[C@@H](Nc1c(C#N)c(-c2ccc(-c3ccncc3C)cc2)nc2cnccc12)C(N)=O`, the chromatographic logD in [1] worked out at 2.
Still for that read-out and setting: to `CC[C@@H](Nc1c(C#N)c(-c2ccc(-c3cccnc3C)cc2)nc2cnccc12)C(N)=O` belongs 1.9; to `CC[C@@H](Nc1c(C#N)c(-c2ccc(-c3cccc(Cl)c3F)cc2)nc2cnccc12)C(=O)O`, 2.2; to `CC[C@@H](Nc1c(C#N)c(-c2ccc(-c3ncccc3C)cc2)nc2cnccc12)C(N)=O`, 2.
For `CC(C)(Nc1c(C#N)c(-c2ccc(Br)cc2)nc2cnccc12)C(N)=O`, the chromatographic logD in data set [1] turned out to be 2.1.
Still for that read-out and setting: to `CC[C@@H](Nc1c(C#N)c(-c2ccc(-c3ccccc3C(C)C)cc2)nc2cnccc12)C(N)=O` belongs 3.5.
On the same count and under the same terms, to `CC[C@@H](Nc1c(C#N)c(-c2ccc(-c3ccccc3CO)cc2)nc2cnccc12)C(N)=O` belongs 2.1; to `CCOc1ccccc1-c1ccc(-c2nc3cnccc3c(C[C@H](C)C(N)=O)c2C#N)cc1`, 3.
The same measure, in the same setting: to `CC[C@@H](Nc1c(C#N)c(-c2ccc(-c3cccc(CO)c3)cc2)nc2cnccc12)C(N)=O` belongs 2; to `CCOc1ccccc1-c1ccc(-c2nc3cnccc3c(N[C@H](CC)C(=O)NS(C)(=O)=O)c2C#N)cc1`, 2.2.
`CC[C@@H](Nc1c(C#N)c(-c2ccc(-c3ccccc3C)cc2)nc2cnccc12)C(N)=O` registered a chromatographic logD in [1] of 3.
On the same count and under the same terms, to `CCOc1ccccc1-c1ccc(-c2nc3cnccc3c(N[C@H](CC)C(=O)NCC(F)F)c2C#N)cc1` belongs 3.6.
The same measure, in the same setting: to `CCOc1ccccc1-c1ccc(-c2nc3cnccc3cc2C#N)cc1` belongs 3.8; to `CCOc1ccccc1-c1ccc(-c2nc3cnccc3c(N[C@H](CC)C(=O)NS(=O)(=O)C3CC3)c2C#N)cc1`, 2.3.
The same measure, in the same setting: to `CC[C@@H](Nc1c(C#N)c(-c2ccc(-c3ccc(F)cc3)cc2)nc2cnccc12)C(N)=O` belongs 2.7; to `CCOc1ccccc1-c1ccc(-c2nc3cnccc3c(NC(C(N)=O)C3CC3)c2C#N)cc1` (racemic), 3; to `CCOc1ccccc1-c1ccc(-c2nc3cnccc3c(NC(COC)C(N)=O)c2C#N)cc1` (racemic), 2.8.
For orientation: pKa means the pH at which an ionisable group is half protonated. A high value points to a group that holds its proton tightly. In [7], `CCOc1ccccc1-c1ccc(-c2nc3cnccc3c(NC(C)C(=O)O)c2C#N)cc1` (racemic) gave a pKa of 3.26. In data set [1], the chromatographic logD was 2.1.
In data set [1], `CC(Nc1c(C#N)c(-c2ccc(Br)cc2)nc2cnccc12)C(N)=O` (racemic) returned a chromatographic logD of 2.1.
On the same count and under the same terms, to `CCCCC(Nc1c(C#N)c(-c2ccc(-c3ccccc3OCC)cc2)nc2cnccc12)C(N)=O` (racemic) belongs 3.6; to `CCOc1ccccc1-c1ccc(-c2nc3cnccc3c(NC(CC)CNS(=O)(=O)C3CC3)c2C#N)cc1` (racemic), 3.6.
On the same count and under the same terms, to `CCOc1ccccc1-c1ccc(-c2nc(NC(C)C(=O)O)c3ccncc3n2)cc1` (racemic) belongs 2.1.
Regarding `CC[C@@H](Nc1c(C#N)c(-c2ccc(-c3cccc(C)c3F)cc2)nc2cnccc12)C(=O)O` [BAY-091], the figures for the Fh at 1 h, 1 µM in data set [8] and in [2] were 100% and 33%, respectively. The CLint scaled at 1 µM was 38.3 mL/min/kg in data set [3] and 46.7 mL/min/kg in [6]. Further, the Fh at 1.5 h, 1 µM in data set [4] was found to be 44%. The solubility at 24 h in [5] was over 1000 µg/mL. Besides, the Stability result in data set [9], in data set [10] and in data set [11] was “Stable” in each case. The same molecule had a chromatographic logD in [1] of 2.1.
